Laboratory results reported in publication PMC9304124 (Clinical Pharmacology in Drug Development, 2022).
Like-named read-outs stand apart in the source and are kept apart here.

Key:
CYP3A4 [1] = tested on: CYP3A4; design: method as in PMID 26347206, PMID 31445021; settings: in vitro; cited from earlier work
[2] = Steady-state plasma PK of trametinib and metabolite M5 when coadministered with NE/EE; settings: trametinib 2 mg daily + NE/EE, day 21, plasma
Method: Both regimens were continued until day 21 (Figure 1).
Extracts were analyzed using LC‐MS/MS.

CYP2B6 = tested on: CYP2B6; design: method as in PMID 26347206, PMID 31445021; settings: in vitro; cited from earlier work
[3] = cited from earlier work
[4] = design: method as in Novartis, unpublished data; settings: ref Novartis, unpublished data; cited from earlier work
CYP3A4 [5] = settings: in vitro, cited from earlier work
phospho‐MEK1 = tested on: phospho‐MEK1; design: method as in PMID 23971497; settings: in vitro; read-out: half maximal inhibitory concentration to inhibit phospho‐MEK1; cited from earlier work
UGT1A1 = tested on: UGT1A1; design: method as in PMID 26347206, PMID 31445021; settings: in vitro; cited from earlier work
[6] = overall study, N = 19
CYP2A6 = tested on: CYP2A6; design: method as in PMID 26347206, PMID 31445021; settings: in vitro; cited from earlier work
CYP2D6 = tested on: CYP2D6; design: method as in PMID 26347206, PMID 31445021; settings: in vitro; cited from earlier work
CYP1A2 = tested on: CYP1A2; design: method as in PMID 26347206, PMID 31445021; settings: in vitro; cited from earlier work
[7] = design: method as in PMID 23971497; settings: human plasma; cited from earlier work
CYP3A4 [8] = tested on: CYP3A4; design: method as in PMID 24748562; settings: in vitro; read-out: EC50 for CYP3A4 mRNA induction; cited from earlier work
[9] = basis for study design, no reference given; cited from earlier work
[10] = Steady-state plasma PK of NE and EE, NE/EE given alone or with trametinib (phase 1 DDI study); settings: for AUC(0-t): AUClast; for AUC: AUCtau
clinical = settings: female, human, plasma, oral
[11] = female, human, plasma, oral, adjusted geo‐mean, NE/EE + T, linear mixed-effects model
[12] = female, human, plasma, oral, adjusted geo‐mean, NE/EE alone, linear mixed-effects model
[13] = female, human, plasma, oral, geo‐mean (geo‐CV%), NE/EE alone, day 5, plasma
[14] = female, human, plasma, oral, mean (SD), NE/EE alone, day 5, plasma

For `CC(=O)Nc1cccc(-n2c(=O)n(C3CC3)c(=O)c3c(Nc4ccc(I)cc4F)n(C)c(=O)c(C)c32)c1` [trametinib, Trametinib], the “CYP3A4 inhibition (in words)” value (CYP3A4 [1]) is given as “no inhibitory activity”, the “Cmax, geo‐mean (geo‐CV%)” value [2] is given as 27.4 (35.4) ng/mL and the “CYP2B6 inhibition (in words)” value (CYP2B6) is given as “no inhibitory activity”. The “peak:trough ratio” value ([3]; 2 mg once daily) was 1.8, the “time to reach Cmax (tmax)” value ([3]; 2 mg once daily) was 1.5 h and the “clinically relevant systemic exposure (concentration)” value ([3]; based on the Cmax of 22.2 ng/mL) was “≈ 0.04 μM”. For the same compound, the intrasubject variability [3] was “more than 30%”, the “geo‐mean AUC0‐24” value ([3]; trametinib 2 mg in the absence of COC) was 370 ng·h/mL and the “findings in animal reproduction studies (in words)” value [4] was “maternal and developmental toxicities”. For the same compound, the “maximal effect of CYP3A4 induction, % of that of rifampicin” value (CYP3A4 [5]; hepatocytes, ref Novartis, unpublished data) was 69%, the EC50 (CYP3A4 [5]; hepatocytes, ref Novartis, unpublished data, read-out: EC50 for CYP3A4 induction) was 1700 nM and the “CYP3A4 induction (in words)” value (CYP3A4 [5]) was “low‐level inducer”. For the same compound, the IC50 (phospho‐MEK1) was 7 ± 0.1 nM, the “UGT1A1 inhibition (in words)” value (UGT1A1) was “inhibitor” and the “AE of special interest: patients with bleeding events” value [6] was 15.8%. The “AE of special interest: patients with cardiac‐related event” value [6] was 5.3%, the “AE of special interest: patients with hepatic disorders” value [6] was 26.3% and the “AE of special interest: patients with hypertension” value [6] was 15.8%. For the same compound, the “AE of special interest: patients with skin toxicity” value [6] was 63.2%, the “CYP2A6 inhibition (in words)” value (CYP2A6) was “no inhibitory activity” and the “CYP2D6 inhibition (in words)” value (CYP2D6) was “no inhibitory activity”. For the same compound, the “CYP1A2 inhibition (in words)” value (CYP1A2) was “no inhibitory activity”.

In the case of `Cc1c(=O)n(C)c(Nc2ccc(I)cc2F)c2c(=O)n(C3CC3)c(=O)n(-c3cccc(N)c3)c12` [M5], the “share of drug‐related material in plasma” value [7] is given as less than 11% and the IC50 (phospho‐MEK1) is given as 9 ± 1 nM.

For `C#C[C@]1(O)CC[C@H]2[C@@H]3CCc4cc(O)ccc4[C@H]3CC[C@@]21C` [EE, ethinyl estradiol], the “mean t1/2” value [9] is given as 20 h, the “Ctrough, mean (SD)” value ([10]; NE/EE alone, day 5, plasma) is given as 22.2 (12.6) pg/mL and the “AUCtau, adjusted geo‐mean” value ([10]; NE/EE alone, linear mixed-effects model) is given as 1.06 ng·h/mL. The AUC(0-t) [10, 11] was 1.07 ng·h/mL, the AUC(0-t) [10, 12] was 1.02 ng·h/mL and the AUC(0-t) [10, 13] was 0.983 ng·h/mL. For the same compound, the AUC(0-t) [10, 14] was 1.15 ng·h/mL, the AUC [10, 11] was 1.12 ng·h/mL and the AUC ([10]; female, human, plasma, oral, geo‐mean (geo‐CV%), NE/EE alone (1 mg NE/0.035 mg EE daily), day 5, plasma) was 1.02 ng·h/mL. The AUC [10, 14] was 1.16 ng·h/mL, the Cmax [10, 11] was 0.128 ng/mL and the Cmax [10, 12] was 0.14 ng/mL. It also gave a Cmax [10, 13] of 0.135 ng/mL, a Cmax [10, 14] of 0.151 ng/mL and a Tmax ([10]; female, human, plasma, oral, tmax, median (range), NE/EE alone, day 5, plasma) of 0.98 h.

In the case of `C#C[C@]1(O)CC[C@H]2[C@@H]3CCC4=CC(=O)CC[C@@H]4[C@H]3CC[C@@]21C` [NE, norethindrone], the “CL/F, geo‐mean (geo‐CV%)” value ([10]; NE/EE alone, day 5, plasma) is reported as 9.41 (76.9) L/h, the “Ctrough, geo‐mean (geo‐CV%)” value ([10]; NE/EE alone, day 5, plasma) is reported as 1060 (165.5) pg/mL and the “Ctrough, mean (SD)” value ([10]; NE/EE alone, day 5, plasma) is reported as 1940 (2850) pg/mL. For the same compound, the “tmax, median (range)” value ([10]; NE/EE alone, day 5, plasma) was 1.00 (0.50‐24) h, the AUC(0-t) [10, 11] was 127 ng·h/mL and the AUC(0-t) [10, 12] was 106 ng·h/mL. For the same compound, the AUC [10, 11] was 131 ng·h/mL, the AUC [10, 12] was 110 ng·h/mL and the Cmax [10, 11] was 17.1 ng/mL. The Cmax [10, 12] was 15.2 ng/mL, the half-life ([10]; female, human, plasma, oral, t½, median (range), NE/EE alone, day 5, plasma) was 9.22 h and the Tmax (clinical) was 1.02 h. It also gave a half-life (clinical) of 9.06 h.
